Measurements published in ChEMBL document CHEMBL1123991 (J Med Chem, 1988).

Assays:
D(2) dopamine receptor = D(2) dopamine receptor (Rattus norvegicus, UniProt P61169); assay: Inhibition of 0.1 nM of [125I]- (S)-N-(1-Ethyl-pyrrolidin-2-ylmethyl)-5-iodo-2-methoxy-benzamide binding in striatal homogenates of rat brain; type: tissue-based
[1] = Ratio of uptake of [125I]- (S)-N-(1-Ethyl-pyrrolidin-2-ylmethyl)-5-iodo-2-methoxy-benzamide in striatum:striatum; 1.0:1; type: functional
Rattus norvegicus [2] = assay: Regional uptake of [125I]- (S)-N-(1-Ethyl-pyrrolidin-2-ylmethyl)-5-iodo-2-methoxy-benzamide in rat cerebellum 60 min after intravenous administration; type: functional, organism-based
[3] = Ratio of uptake of [125I]- (S)-N-(1-Ethyl-pyrrolidin-2-ylmethyl)-5-iodo-2-methoxy-benzamide in striatum:cerebellum; 7.2:1; type: functional
[4] = Ratio of uptake of [125I]- (S)-N-(1-Ethyl-pyrrolidin-2-ylmethyl)-5-iodo-2-methoxy-benzamide in striatum:frontal cortex; 4.7:1; type: functional
Rattus norvegicus [5] = assay: Regional uptake of [125I]- (S)-N-(1-Ethyl-pyrrolidin-2-ylmethyl)-5-iodo-2-methoxy-benzamide in rat frontal cortex 60 min after intravenous administration; type: functional, organism-based
Rattus norvegicus [6] = assay: Regional uptake of [125I]- (S)-N-(1-Ethyl-pyrrolidin-2-ylmethyl)-5-iodo-2-methoxy-benzamide in rat striatum 60 min after intravenous administration; type: functional, organism-based

Chain of D(2) dopamine receptor (P61169 whole entry): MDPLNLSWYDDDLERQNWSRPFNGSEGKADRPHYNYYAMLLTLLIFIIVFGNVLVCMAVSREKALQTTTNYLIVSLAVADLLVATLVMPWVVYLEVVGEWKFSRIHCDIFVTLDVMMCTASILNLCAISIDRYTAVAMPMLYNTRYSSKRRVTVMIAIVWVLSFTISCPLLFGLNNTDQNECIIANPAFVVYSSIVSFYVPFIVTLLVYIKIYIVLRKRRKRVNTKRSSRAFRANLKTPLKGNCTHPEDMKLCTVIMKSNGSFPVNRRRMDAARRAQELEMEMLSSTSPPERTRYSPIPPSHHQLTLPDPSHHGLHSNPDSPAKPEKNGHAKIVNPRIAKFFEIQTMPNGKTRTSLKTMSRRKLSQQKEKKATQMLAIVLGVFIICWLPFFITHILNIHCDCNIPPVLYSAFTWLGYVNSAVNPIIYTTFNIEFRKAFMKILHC

`CCN1CCC[C@H]1CNC(=O)c1cc(I)ccc1OC` [IODOPRIDE] showed an IC50 (D(2) dopamine receptor) of 1.5 nM.

`CCN1CCC[C@@H]1CNC(=O)c1cc(I)ccc1OC` gave a Ratio [1] of 1, an IC50 (D(2) dopamine receptor) of 113 nM and a Radioactivity (Rattus norvegicus [2]) of 7.8 nCi g-1. It also gave a Ratio [3] of 7.2, a Ratio [4] of 4.7 and a Radioactivity (Rattus norvegicus [5]) of 11.9 nCi g-1. For the same molecule, the Radioactivity (Rattus norvegicus [6]) was 56.2 nCi g-1.
